Measured values from patent US20220395472A1 (Dermavant Sciences GmbH, priority 2021, published 2022).

Experiments:
[1] = tested on: adults with plaque psoriasis; experiment: Long-term extension study (PSOARING 3): % BSA affected; assay type: in vivo, human; conditions: Week 40 OC; Vehicle (Pivotal)
Procedure: The % BSA affected is an estimate of the percentage of total involved skin with psoriasis. For the purpose of clinical estimation, the total palmar surface of the subject's palm and digits was assumed to be approximately equivalent to 1% BSA. The % BSA affected by psoriasis was evaluated (from 0% to 100%). Details on calculation of approximate % BSA involvement in each subject (total and individual) can be found in Appendix 2 of the protocol. Percent BSA is a static assessment made without reference to previous scores.
At Screening, Baseline, and for all efficacy assessments, lesions on the subject's scalp, palms, fingernails, toenails, and soles were not included in the calculation of % BSA affected as these areas were excluded from the efficacy analyses.

[2] = tested on: adults with plaque psoriasis; experiment: Long-term extension study (PSOARING 3): PASI score, PASI75, PASI90; assay type: in vivo, human
Source text: The PASI scoring system is a widely used, standard, clinical tool for assessing the severity of psoriasis that takes into account the overall severity of erythema (redness), induration (plaque thickness), scale, and the extent of % BSA affected with psoriasis. The 3 clinical signs are each graded on a 5 point scale (0 to 4) and the % BSA affected is scored on a 7 point scale (0 to 6) for each of the 4 specified body regions (head, upper extremities, trunk, and lower extremities). Individual scores are multiplied by a weighted factor for each body region; the sum of these scores gives the overall PASI score. Higher scores indicate more severe disease. PASI is a static assessment made without reference to previous scores. Details on PASI calculation can be found in Appendix 2 of the protocol.

[3] = Week 16 LOCF, Tapinarof (Pivotal)
[4] = Week 16 LOCF, Vehicle (Pivotal)
[5] = Week 16 OC, Tapinarof (Pivotal)
[6] = Week 40 LOCF, Tapinarof (Pivotal)
[7] = Week 40 LOCF, Vehicle (Pivotal)
[8] = Week 40 OC, Tapinarof (Pivotal)

CC(C)c1c(O)cc(/C=C/c2ccccc2)cc1O [Tapinarof Cream 1%]
% BSA affected, Percent CFBL, Median [1]: −86.06%
PASI, Observed, Mean ([2]; Baseline, Overall): 4.76
PASI, Observed, Median ([2]; Baseline, Overall): 3.40
PASI, Observed, Mean ([2]; Baseline, Tapinarof (Pivotal)): 3.28
PASI, Observed, Median ([2]; Baseline, Tapinarof (Pivotal)): 2.30
PASI, CFBL, Mean ([2]; Week 16 LOCF, Overall): −1.80
PASI, CFBL, Median ([2]; Week 16 LOCF, Overall): −0.90
PASI, Observed, Mean ([2]; Week 16 LOCF, Overall): 2.99
PASI, Observed, Median ([2]; Week 16 LOCF, Overall): 1.80
PASI, Percent CFBL, Mean ([2]; Week 16 LOCF, Overall): −20.93%
PASI, Percent CFBL, Median ([2]; Week 16 LOCF, Overall): −40.91%
PASI, CFBL, Mean [2, 3]: −0.54
PASI, CFBL, Median [2, 3]: −0.20
PASI, Observed, Mean [2, 3]: 2.74
PASI, Observed, Median [2, 3]: 1.80
PASI, Percent CFBL, Mean [2, 3]: −3.20%
PASI, Percent CFBL, Median [2, 3]: −25.00%
PASI, CFBL, Mean [2, 4]: −4.24
PASI, CFBL, Median [2, 4]: −3.80
PASI, Observed, Mean [2, 4]: 3.47
PASI, Observed, Median [2, 4]: 2.40
PASI, Percent CFBL, Mean [2, 4]: −51.02%
PASI, Percent CFBL, Median [2, 4]: −59.38%
PASI, CFBL, Mean ([2]; Week 16 OC, Overall): −1.99
PASI, CFBL, Median ([2]; Week 16 OC, Overall): −1.00
PASI, Observed, Mean ([2]; Week 16 OC, Overall): 2.57
PASI, Observed, Median ([2]; Week 16 OC, Overall): 1.80
PASI, Percent CFBL, Mean ([2]; Week 16 OC, Overall): −25.35%
PASI, Percent CFBL, Median ([2]; Week 16 OC, Overall): −44.72%
PASI, CFBL, Mean [2, 5]: −0.67
PASI, CFBL, Median [2, 5]: −0.40
PASI, Observed, Mean [2, 5]: 2.38
PASI, Observed, Median [2, 5]: 1.60
PASI, Percent CFBL, Mean [2, 5]: −7.79%
PASI, Percent CFBL, Median [2, 5]: −30.00%
PASI, CFBL, Mean ([2]; Week 16 OC, Vehicle (Pivotal)): −4.59
PASI, CFBL, Median ([2]; Week 16 OC, Vehicle (Pivotal)): −3.80
PASI, Observed, Mean ([2]; Week 16 OC, Vehicle (Pivotal)): 2.95
PASI, Observed, Median ([2]; Week 16 OC, Vehicle (Pivotal)): 2.10
PASI, Percent CFBL, Mean ([2]; Week 16 OC, Vehicle (Pivotal)): −55.09%
PASI, Percent CFBL, Median ([2]; Week 16 OC, Vehicle (Pivotal)): −64.02%
PASI, CFBL, Median ([2]; Week 40 LOCF, Overall): −0.90
PASI, Observed, Mean ([2]; Week 40 LOCF, Overall): 2.97
PASI, Observed, Median ([2]; Week 40 LOCF, Overall): 1.80
PASI, Percent CFBL, Mean ([2]; Week 40 LOCF, Overall): −10.45%
PASI, Percent CFBL, Median ([2]; Week 40 LOCF, Overall): −44.44%
PASI, CFBL, Mean [2, 6]: −0.48
PASI, CFBL, Median [2, 6]: −0.20
PASI, Observed, Mean [2, 6]: 2.80
PASI, Observed, Median [2, 6]: 1.80
PASI, Percent CFBL, Mean [2, 6]: 11.96%
PASI, Percent CFBL, Median [2, 6]: −27.27%
PASI, CFBL, Mean [2, 7]: −4.42
PASI, CFBL, Median [2, 7]: −3.90
PASI, Observed, Mean [2, 7]: 3.28
PASI, Observed, Median [2, 7]: 2.00
PASI, Percent CFBL, Mean [2, 7]: −48.42%
PASI, Percent CFBL, Median [2, 7]: −68.66%
PASI, CFBL, Mean ([2]; Week 40 OC, Overall): −2.14
PASI, CFBL, Median ([2]; Week 40 OC, Overall): −1.20
PASI, Observed, Mean ([2]; Week 40 OC, Overall): 2.36
PASI, Observed, Median ([2]; Week 40 OC, Overall): 1.60
PASI, Percent CFBL, Mean ([2]; Week 40 OC, Overall): −16.18%
PASI, Percent CFBL, Median ([2]; Week 40 OC, Overall): −56.70%
PASI, CFBL, Mean [2, 8]: −0.51
PASI, CFBL, Median [2, 8]: −0.30
PASI, Observed, Mean [2, 8]: 2.38
PASI, Observed, Median [2, 8]: 1.60
PASI, Percent CFBL, Mean [2, 8]: 8.49%
PASI, Percent CFBL, Median [2, 8]: −35.24%
PASI, CFBL, Mean ([2]; Week 40 OC, Vehicle (Pivotal)): −5.53
PASI, CFBL, Median ([2]; Week 40 OC, Vehicle (Pivotal)): −4.80
PASI, Observed, Mean ([2]; Week 40 OC, Vehicle (Pivotal)): 2.31
PASI, Observed, Median ([2]; Week 40 OC, Vehicle (Pivotal)): 1.40
PASI, Percent CFBL, Mean ([2]; Week 40 OC, Vehicle (Pivotal)): −60.12%
PASI, Percent CFBL, Median ([2]; Week 40 OC, Vehicle (Pivotal)): −76.39%
